Experimental data reported in patent US11339405B2, “Kit and method for producing induced embryonic neural progenitors” (priority 2017, dated 2022).
Entries after “also recorded” stand apart in the source; their conditions may differ.

What was measured:
HD-iENPs = test: γH2AX ICC (DNA damage) in HD-iENPs; format: cell-based, human; details: vs vehicle (DMSO)
HD-iENP-derived neurons = test: γH2AX ICC (DNA damage) in HD-iENP-derived neurons; format: cell-based, human; details: neuronal derivatives of HD-iENPs; vs vehicle (DMSO)
AD-iENP-derived neurons = test: pTAU (AT8) ICC in AD-iENP-derived neurons, AD drug testing; format: cell-based, human; details: AD-iENP-derived neurons (AD1, APOE4/E4), treated for 2 days at 7 days after cortical differentiation; vs DMSO
Method: General neural differentiation was examined using differentiation media [Neurobasal, B27 supplement, 1% NEAA, 2 mM glutamine, 1 mM sodium pyruvate (Invitrogen), 300 μg/ml dbcAMP, 50 μM ascorbic acid (Sigma), 20 ng/ml BDNF, 20 ng/ml GDNF, 50 ng/ml NGF (Peprotech)], while specific neuronal differentiation were examined using cortical neuronal differentiation media, dopaminergic neuronal differentiation media, and PNS neuronal differentiation media [cortical neuronal differentiation media: Neurobasal, N2 supplement, B27 supplement (Invitrogen), 100 ng/ml SHH, 125 ng/ml Noggin, 250 ng/ml DKK1, 10 ng/ml BDNF, 10 ng/ml bFGF (R&D), 2 μM XAV939, 100 nM LDN93189, 10 μM SB431542, 200 μM ascorbic acid, 200 μM dbcAMP (Sigma); dopaminergic neuronal differentiation media: DMEM/F12, N2 supplement (Invitrogen), 20 ng/ml BDNF, 200 ng/ml SHH, 100 ng/ml FGF8P (R&D), 200 μM ascorbic acid (Sigma); PNS neuronal differentiation media: DMEM/F12, N2 supplement (Invitrogen), 3 μM CHIR99021, 10 μM SU5402, 10 μM DAPT, 200 μM dbcAMP]. For AD drug testing, AD- and control-iENPs were subjected to cortical differentiation. At 7 days after differentiation, cells were treated with SB415286, 1-Azakenpaullone (Selleckchem), or DMSO (Sigma) for 2 days. […]
The ICC procedure was performed as previously described. […] Signals were recorded using a Zeiss microscope and Spot software. […]

[1] = system: TTX-sensitive sodium channels; format: cell-based, human
[2] = system: FBs infected with virus encoding the 6 or 7TF combinations

CCNC(=O)[C@H]1O[C@@H](n2cnc3c(N)nc(NCCc4ccc(CCC(=O)O)cc4)nc32)[C@H](O)[C@@H]1O [CGS21680]
γH2AX expression (DNA damage) (HD-iENPs): significantly decreased; also recorded: decreased DNA damage | γH2AX expression (DNA damage) (HD-iENP-derived neurons): significantly decreased; also recorded: decreased DNA damage

O=C1Cc2c([nH]c3ccc(Br)cc23)-c2ncccc2N1 [1-Aza, 1-Azakenpaullone]
pTAU aggregation / pTAU expression (AD-iENP-derived neurons): significantly reduced

O=C1NC(=O)C(c2ccccc2[N+](=O)[O-])=C1Nc1ccc(O)c(Cl)c1 [SB415286]
pTAU aggregation / pTAU expression (AD-iENP-derived neurons): significantly reduced

NC1=N[C@H](O)[C@H]2[C@H]3O[C@]4(O)O[C@@H]([C@@H](O)[C@@]2(N1)[C@@H]4O)[C@]3(O)CO [TTX, tetrodotoxin]
inward Na+ currents [1]: could be blocked | sodium channel-mediated inward currents [1]: blocked

RepSox
efficiency of iENP-6F generation [2]: significantly improved
